Measured values from US20170087205A1, “Replacement Therapy for Natriuretic Peptide Deficiencies” (priority 2014, published 2017).
Positions of bridges follow the written chain, without caps; N, C: chain ends. Non-standard residues stand in square brackets, D forms with d. Residues, ends and D or L forms follow the SMILES beside them. *: point of attachment. X1 = N=C(N)NCCC[C@H]1C(=O)N[C@@H](C(N)=O)CN1*; dNle = CCCC[C@@H](N)C(=O)O; Heptanoyl = CCCCCCC(=O)*

Assays:
[1] = molecular target: human NEP (hNEP) (Homo sapiens, UniProt P08473); assay: Metabolism by human neutral endopeptidase (hNEP); assay type: in vitro ADME; conditions: two hours, 37° C., substrate concentration 50 μM
Protocol: Pharmacol. 191:341-366 (2009)). A comparison was made between the sensitivity of the mimetic of formula IV and ANP to metabolism by human NEP (hNEP) (substrate concentration 50 μM). After two hours exposure to hNEP solution at 37° C., there was minimal degradation of the mimetic of formula IV (92% remaining; n=5). In contrast, under these conditions ANP was about 90% degraded after 60 minutes and 100% degraded after two hours (n=4). […] Results are shown in FIG. 1; results in FIG. 1 are expressed as the percent of the starting material, and are either the mean of 1-5 experiments or, where error bars are shown, are the mean±standard deviation.

[2] = in vivo; cited from earlier work
[3] = molecular target: T1, human NPRA (Homo sapiens, UniProt P16066); assay type: cell-based; conditions: human NPRA in HEK cells; mean ± SD
T1 sequence (P16066 33-1061): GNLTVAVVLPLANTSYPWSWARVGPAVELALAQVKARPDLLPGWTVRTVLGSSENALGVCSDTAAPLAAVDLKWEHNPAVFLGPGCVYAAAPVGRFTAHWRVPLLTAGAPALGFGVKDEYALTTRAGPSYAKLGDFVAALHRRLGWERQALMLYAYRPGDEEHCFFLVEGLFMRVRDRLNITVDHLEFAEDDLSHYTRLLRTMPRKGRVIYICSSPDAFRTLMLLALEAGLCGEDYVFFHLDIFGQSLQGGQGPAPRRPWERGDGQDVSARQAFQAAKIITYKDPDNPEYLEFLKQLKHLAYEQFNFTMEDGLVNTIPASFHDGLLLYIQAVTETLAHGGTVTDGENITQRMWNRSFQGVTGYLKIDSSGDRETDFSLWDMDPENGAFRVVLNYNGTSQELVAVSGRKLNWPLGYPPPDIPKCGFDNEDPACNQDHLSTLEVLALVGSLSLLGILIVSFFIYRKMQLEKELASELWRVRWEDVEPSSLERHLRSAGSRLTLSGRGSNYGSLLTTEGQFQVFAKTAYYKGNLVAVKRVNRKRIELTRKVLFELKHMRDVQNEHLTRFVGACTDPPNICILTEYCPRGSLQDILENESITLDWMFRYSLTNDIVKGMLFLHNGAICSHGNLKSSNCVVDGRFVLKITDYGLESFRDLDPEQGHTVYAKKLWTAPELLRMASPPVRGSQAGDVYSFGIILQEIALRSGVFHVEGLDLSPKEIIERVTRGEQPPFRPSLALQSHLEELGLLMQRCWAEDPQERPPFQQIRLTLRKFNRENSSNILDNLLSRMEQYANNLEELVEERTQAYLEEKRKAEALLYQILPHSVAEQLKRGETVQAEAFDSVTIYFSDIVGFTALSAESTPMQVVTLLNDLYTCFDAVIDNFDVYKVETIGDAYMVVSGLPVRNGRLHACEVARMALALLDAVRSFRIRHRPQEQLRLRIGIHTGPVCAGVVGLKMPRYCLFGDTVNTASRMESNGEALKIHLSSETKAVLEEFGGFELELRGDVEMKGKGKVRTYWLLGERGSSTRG
Protocol: A cDNA clone that encodes for human natriuratic peptide receptor A (NPRA) was purchased from Bio S&T Inc. (Montreal, Quebec). The cDNA clone was inserted into the mammalian expression vector pcDNA3.1 (Invitrogen) and transfected into HEK-293 cells. Stable clones were selected by culture of cells in the presence of G418 sulfate. […] HEK-hNPRA cells were maintained in culture at 37° C. in 5% CO2 in Dulbecco's Modified Eagle's Medium (DMEM) supplemented with 10% FBS, G418 sulfate (300 μg/mL) sodium glutamate (0.29 mg/mL), penicillin (100 units/mL) and streptromycin (100 ug/mL).
Functional evaluation of natriuretic peptide mimetics was performed by measuring the accumulation of intracellular cGMP in HEK-293 cells that express recombinant hNPR-A. HEK-NPRA cells were harvested by washing and centrifugation in Cell Dissociation Buffer (Gibco, Life Technologies). Pelleted cells were resuspended in Hank's Balanced Salt Solution (HBSS) containing 10 mM Hepes (pH 7.4), 5 mM MgCl2, 200 mM L-glutamine, 1 mM 1,10-phenanthroline and BSA (0.5 mg/mL). Following centrifugation, cells were resuspended in the above buffer supplemented with 0.5 mM 3-isobutyl-1-methylxanthine (IBMX). […] Accumulation of cGMP was measured using the cGMP Flashplate RIA (Perkin-Elmer). Data analysis and EC50 values were determined by using nonlinear regression analysis with GraphPad Prism® software.

[4] = Safety study in healthy volunteers: pharmacodynamic parameters (plasma cGMP); assay type: in vivo, human; conditions: mean ± SD
From the text: Cyclic guanosine monophosphate (cGMP) in the plasma samples was extracted using a protein precipitation method. cGMP and internal standard, cyclic adenosine monophosphate (cAMP), were separated using a HPLC technique and detected by an Applied Biosystems API-4000 liquid chromatography-tandem mass spectrometer (LC-MS/MS) with turbo-ion spray ionization (electrospray) in positive ion mode. Positive ions were detected in multiple reaction monitoring (MRM) mode with Precursor→Product ion pairs of 346.3→152.1 for cGMP, and 330.0→136.3 for cAMP.
In a safety study, the mimetic of formula IV was administered to healthy volunteers. Doses of 0.1, 0.3, 0.7 and 1.0 μg/kg of the mimetic of formula IV were administered.
Kel is the apparent terminal elimination rate constant, calculated by linear regression of the terminal linear portion of the log concentration versus the time curve. The plasma cGMP concentrations returned to baseline levels by approximately 8 hours after dosing following 0.7 μg/kg and 1.0 μg/kg of the mimetic of formula IV.

Chain of human NEP (hNEP) (P08473 whole entry): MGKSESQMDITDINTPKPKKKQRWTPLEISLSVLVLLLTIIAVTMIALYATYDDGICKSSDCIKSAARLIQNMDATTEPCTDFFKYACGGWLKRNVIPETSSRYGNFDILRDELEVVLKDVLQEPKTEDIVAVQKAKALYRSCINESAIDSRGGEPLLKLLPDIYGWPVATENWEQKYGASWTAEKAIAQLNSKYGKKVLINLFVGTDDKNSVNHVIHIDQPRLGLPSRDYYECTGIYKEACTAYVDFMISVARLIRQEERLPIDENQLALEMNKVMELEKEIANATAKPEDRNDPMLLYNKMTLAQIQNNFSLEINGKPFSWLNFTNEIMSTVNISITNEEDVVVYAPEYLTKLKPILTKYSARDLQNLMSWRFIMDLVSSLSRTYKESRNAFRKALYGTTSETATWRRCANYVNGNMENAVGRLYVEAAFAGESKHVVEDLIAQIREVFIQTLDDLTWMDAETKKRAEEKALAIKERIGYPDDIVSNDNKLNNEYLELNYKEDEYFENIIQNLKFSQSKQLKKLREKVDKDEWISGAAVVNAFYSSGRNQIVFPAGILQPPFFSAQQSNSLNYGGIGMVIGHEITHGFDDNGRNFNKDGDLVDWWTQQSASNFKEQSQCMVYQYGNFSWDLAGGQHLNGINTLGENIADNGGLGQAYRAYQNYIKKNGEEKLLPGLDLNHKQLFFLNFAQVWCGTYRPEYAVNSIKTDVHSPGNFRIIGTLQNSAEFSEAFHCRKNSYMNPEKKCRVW

## CC[C@H](C)[C@@H]1NC(=O)[C@H](CCCNC(=N)N)NC(=O)[C@H](CC(=O)O)NC(=O)[C@H](CC(C)C)NC(=O)[C@H](CCCCN)NC(=O)[C@H](CC(C)C)NC(=O)CNC(=O)[C@H](Cc2ccccc2)NC(=O)[C@@H](NC(=O)CNC(=O)[C@H](CCCCN)NC(=O)[C@H](CO)NC(=O)[C@H](CC(C)C)NC(=O)CN)CSSC[C@@H](C(=O)O)NC(=O)CNC(=O)[C@H](CC(C)C)NC(=O)CNC(=O)[C@H](CO)NC(=O)[C@H](CCSC)NC(=O)[C@H](CO)NC(=O)CNC1=O [hCNP]
[1]
  percent remaining after exposure to hNEP: 1%
[2]
  reported human plasma half-life: about 2 minutes

## CCCCCCC(=O)N[C@H]1CSSC[C@@H](C(=O)N[C@@H](Cc2ccc(O)cc2)C(=O)N2C[C@H](C(N)=O)NC(=O)[C@@H]2CCCNC(=N)N)NC(=O)[C@H](CO)NC(=O)[C@H]([C@@H](C)CC)NC(=O)[C@H](CCCNC(=N)N)NC(=O)[C@H](CC(=O)O)NC(=O)[C@@H](CCCC)NC(=O)[C@H](CCCNC(=N)N)NC(=O)CNC(=O)[C@@H](C)NC(=O)[C@H](Cc2ccccc2)NC(=O)[C@H](Cc2c[nH]cn2)NC1=O [mimetic of formula IV] (Heptanoyl-CHF[dA]GR[dNle]DRISCY-X1; disulfide 1-12)
[3]
  Function (cGMP) Emax (% of ANP response): 94 ± 8 % of ANP response
[4]; 0.7 μg/kg
  t½: 3.03 ± 0.345 h
[4]; 1.0 μg/kg
  t½: 2.98 ± 3.61 h
